Data: patent US20250084078A1, “FUSED RING-SUBSTITUTED SIX-MEMBERED HETEROCYCLIC COMPOUND, AND PREPARATION METHOD THEREFOR AND USE THEREOF” (GENFLEFT THERAPEUTICS (SHANGHAI) INC., priority 2022, published 2025)
Counter-ions that a name gives are not always drawn.

Key:
HPK1 [1] = target: HPK1 (Homo sapiens, UniProt Q92918); assay: SLP76 phosphorylation assay (intracellular HPK1 inhibitory activity, p-SLP76 S376 ELISA in Jurkat cells); details: Clone E6-1 cells, 1 h compound pre-incubation, anti-CD3 beads stimulation 20 min, Phospho-SLP-76 (Ser376) ELISA
Target sequence in this assay (Q92918 whole entry): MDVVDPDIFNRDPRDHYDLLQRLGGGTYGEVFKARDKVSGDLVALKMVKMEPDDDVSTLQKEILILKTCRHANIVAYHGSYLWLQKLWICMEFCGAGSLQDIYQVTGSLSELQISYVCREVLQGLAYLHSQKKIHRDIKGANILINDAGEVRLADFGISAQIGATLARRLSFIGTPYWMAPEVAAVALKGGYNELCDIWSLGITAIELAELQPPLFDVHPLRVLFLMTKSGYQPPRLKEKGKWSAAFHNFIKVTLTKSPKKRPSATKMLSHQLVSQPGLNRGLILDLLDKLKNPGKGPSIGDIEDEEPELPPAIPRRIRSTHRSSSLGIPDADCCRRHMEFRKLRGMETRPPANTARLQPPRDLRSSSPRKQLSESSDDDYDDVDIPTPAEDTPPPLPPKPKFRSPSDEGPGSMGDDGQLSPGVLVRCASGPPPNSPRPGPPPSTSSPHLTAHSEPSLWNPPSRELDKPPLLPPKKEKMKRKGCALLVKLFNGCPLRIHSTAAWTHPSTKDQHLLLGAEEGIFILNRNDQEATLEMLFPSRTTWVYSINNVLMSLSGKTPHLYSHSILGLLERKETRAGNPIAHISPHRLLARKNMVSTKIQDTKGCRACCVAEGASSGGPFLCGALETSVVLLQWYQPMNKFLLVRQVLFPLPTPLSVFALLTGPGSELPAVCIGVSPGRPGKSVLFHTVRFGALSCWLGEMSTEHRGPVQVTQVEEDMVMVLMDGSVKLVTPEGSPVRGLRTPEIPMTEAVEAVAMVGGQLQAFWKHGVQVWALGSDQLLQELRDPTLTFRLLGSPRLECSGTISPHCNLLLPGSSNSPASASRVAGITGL
Method: SLP76 Phosphorylation Assay
Intracellular HPK1 inhibitory activity was tested by the detection of SLP76 phosphorylation at S376.
(§1) Preparation of 1000× drug stock plate: a 1000× compound stock plate was prepared. […] The compound stock plate was sealed with a sealing film and stored in a −20° C. refrigerator for later use.
Preparation of Beads wash buffer: 0.1 mL FBS and 0.4 mL 0.5 M EDTA (with a final concentration of 2 mM) were added to 100 mL PBS and stored in a 4° C. refrigerator for later use.
100× Protease Inhibitor Cocktail in 1/20 total volume was added and stored on wet ice for later use. The buffer was ready to use.
Cell inoculation and dosing: the 1000× drug stock plate was taken and melted at room temperature in the dark. […] Jurkat cells in the logarithmic growth phase were selected and collected. […] The cells were inoculated into a 96-well plate (the volume was 90 μL per well), and a blank control well (without cells inoculation, and in which 110 μL of medium was added) was set. 10 μL of a drug-containing culture medium (10×) was transferred from the 10× drug intermediate plate into the 96-well cell plate (with a final concentration of 0.1% DMSO), and set a DMSO control group (in which 0.1% DMSO was added to the treated cells), a stimulated control group (in which 10 μL of culture medium was added to treat cells) and an unstimulated group (in which 10 μL of culture medium was added to treat cells). The wells were duplicated, gently patted, mixed, and then placed into a 5% CO2 incubator at 37° C. for 1 h.
Anti-CD3 beads stimulation: Dynabeads anti-human CD3 was taken, shaken, and mixed for 60 s. The required volume of beads was pipetted, and an equal volume or at least 1 mL of washing solution was added to wash once. Fresh complete medium was then added to resuspend and adjust the density of the beads to 4×10^7/mL, and the beads were placed on ice for later use. At the end of drug pre-incubation, the cell culture plate was taken out. 10 μL Dynabeads anti-human CD3 was added to each well to treat the cells, and 10 μL the culture medium was added to the unstimulated group. The cell culture plate was shaken to mix well at 2500 rpm for 10 s, and then placed into a 5% CO2 incubator at 37° C. and continued to culture for 20 min.
Detection of p-SLP76 protein level: PathScan Phospho-SLP-76 (Ser376) Sandwich ELISA Kit was applied to detect p-SLP76 protein level. At the end of the Anti-CD3 beads stimulation, the cell culture plate was removed from the incubator. […] After lysis, the cell culture plate was centrifuged at 4° C., 400×g for 5 min. 25 μL of sample and 75 μL of sample diluent were added to each well, and the plate was placed in a 5% CO2 incubator at 37° C. for 2 h. The subsequent detection steps were carried out following the kit instructions, and the absorbance (OD value) of each well was read at 450 nm by a microplate reader.

HPK1 [2] = target: T1, HPK1 (Homo sapiens, UniProt Q92918); assay: HPK1 kinase activity assay (ADP-Glo); details: 1 nM HPK1, 10 μM ATP, 0.1 μg/μL MBP
T1 sequence (Q92918 1-346): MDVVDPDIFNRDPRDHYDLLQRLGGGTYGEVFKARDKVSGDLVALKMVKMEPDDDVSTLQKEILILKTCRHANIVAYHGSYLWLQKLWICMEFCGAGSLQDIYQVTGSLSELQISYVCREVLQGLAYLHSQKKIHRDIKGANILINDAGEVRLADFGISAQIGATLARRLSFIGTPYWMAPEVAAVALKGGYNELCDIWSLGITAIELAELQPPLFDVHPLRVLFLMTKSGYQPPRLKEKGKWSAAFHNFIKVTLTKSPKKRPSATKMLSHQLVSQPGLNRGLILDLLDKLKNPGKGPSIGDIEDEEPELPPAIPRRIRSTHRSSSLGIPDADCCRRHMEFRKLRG
Method: Preparation of buffer: Ix reaction buffer (40 mM Tris-HCl, 20 mM MgCl2, 0.01% Brij35, 50 μM DTT, 0.1 mg/ml BSA) was prepared using sterile water, which was prepared and used on the day of the experiment.
as §1
Compound preparation and dosing: the 1000× drug stock plate was taken and melted at room temperature in the dark. Then 5× drug intermediate plate was prepared using reaction buffer and mixed well. 2 μL was transferred from the 5× drug intermediate plate into a 384-well plate, and negative control well and positive control well (in which 2 μL reaction buffer containing 0.5% DMSO was added) were set. Each point was repeated twice.
Preparation and incubation of reaction mixture: HPK1 protein was diluted to a 2.5× working solution with reaction buffer. 4 μL 2.5×HPK1 protein was added to each well containing test compound and positive control well, and 4 μL of reaction buffer without HPK1 protein was added to the negative control well. The obtained mixture was centrifuged at 1000 rpm for 1 min and then incubated in a 20° C. incubator for 15 min. A 2.5× mixed working solution of MBP protein and ATP was prepared with reaction buffer at concentrations of 0.5 μg/μL and 50 μM, respectively. 4 μL of the mixed working solution of MBP and ATP was added to each well, centrifuged at 1000 rpm for 1 min, and then incubated in a 20° C. incubator for 90 min.
ADP-Glo detection and reading plate: 10 μl ADP-Glo was added to each well of the test plate. The resulting mixture was centrifuged at 1000 rpm for 1 min and incubated in a 20° C. incubator for 60 min. Then 10 μL of the final incubation solution was transferred from the test plate to a new 384-well plate. 10 μL of kinase detection reagent was added to each well, centrifuged at 400 g for 1 min, and incubated in a 20° C. incubator for 60 min Chemiluminescent signals were read by a microplate reader.

[3] = read-out: HPK1 Kinase activity IC50, ADP-Glo
[4] = HPK1 Kinase activity IC50, ADP-Glo

Compound	IC50 (HPK1 [1]; read-out: p-SLP76 IC50, Jurkat)	IC50 (HPK1 [2]; [3])	IC50 (HPK1 [1]; p-SLP76 IC50, Jurkat)	IC50 (HPK1 [2]; [4])
5-(8-(4-fluoropyrrolidin-2-yl)isochromen-6-yl)-3-methyl-1H-pyrrolo[2,3-b]pyridine [Compound Z367-1]	999 nM	1.44 nM		
Cc1c[nH]c2ncc(-c3cc4c(c([C@@H]5CCCN5)c3)CN(C(=O)C(C)O)C4)cc12 (mixture of isomers) [Compound Z382, rac-2-hydroxy-1-(6-(3-methyl-1H-pyrrolo[2,3-b]pyridin-5-yl)-4-((R)-pyrrolidin-2-yl)isoindolin-2-yl)propan-1-one]			474 nM	1.35 nM
Cc1c[nH]c2ncc(-c3cc4c(c([C@@H]5CCCN5)c3)CN(C(=O)[C@H](O)c3cccnc3)CC4)cc12 (single isomer, unassigned) [Compound Z287]			338 nM	0.4 nM
Cc1c[nH]c2ncc(-c3cc4c(c([C@@H]5CCCN5)c3)CN(C(=O)[C@@H](O)c3cccnc3)CC4)cc12 (single isomer, unassigned) [Compound Z288]			321 nM	0.69 nM
Cc1c[nH]c2ncc(-c3cc4c(c(C5COCCN5)c3)CN(C(=O)[C@](C)(O)C(F)(F)F)CC4)cc12 (single isomer, unassigned) [Compound Z309-2]				22.7 nM
Cc1c[nH]c2ncc(-c3cc4c(c([C@@H]5CCCN5)c3)CN(C(=O)N3CCOC(C(F)(F)F)C3)CC4)cc12 (single isomer, unassigned) [Compound Z490]			430 nM	1.66 nM
Cc1c[nH]c2ncc(-c3cc4c(c([C@@H]5CCCN5)c3)CN(C(=O)N3CCOC(C(F)(F)F)C3)CC4)cc12 (single isomer, unassigned) [Compound Z491]			308 nM	1.29 nM
O=C(N1CCc2cc(-c3cnc4[nH]cc(Cl)c4n3)cc([C@@H]3COCCN3)c2C1)N1C[C@@H]2CC[C@H]1CO2 (single isomer, unassigned) [Compound Z590]			61.7 nM	0.24 nM
Cc1c[nH]c2ncc(-c3cc4c(c([C@@H]5COCCN5)c3)CN(C(=O)N3C[C@@H]5CC[C@H]3CO5)CC4)cc12 (single isomer, unassigned) [Compound Z644]			61.6 nM	0.25 nM
CCC(=O)N1CCc2cc(-c3cnc4[nH]cc(C)c4c3)cc(C3CCCN3)c2C1 (stereo not drawn) [Compound Z35]				0.87 nM
Cc1c[nH]c2ncc(-c3cc4c(c([C@@H]5CCCN5)c3)CN(C(=O)C(C)(C)C)CC4)cc12 [Compound Z126]			252 nM	0.78 nM
Cc1c[nH]c2ncc(-c3cc4c(c([C@@H]5CCCN5)c3)CN(C(=O)CC3CC3)CC4)cc12 [Compound Z220, (S)-2-cyclopropyl-1-(6-(3-methyl-1H-pyrrolo[2,3-b]pyridin-5-yl)-8-(pyrrolidin-2-yl)-3,4-dihydroisoquinolin-2(1H)-yl)ethanone]	469 nM	2.26 nM		
Cc1cc(CC(=O)N2CCc3c(cc(-c4cnc5[nH]cc(C)c5c4)cc3[C@@H]3CCCN3)C2)ccn1 [Compound Z333, (S)-2-(2-methyl-4-pyridyl)-1-[7-(3-methyl-1H-pyrrolo[2,3-b]pyridin-5-yl)-5-pyrrolidin-2-yl-3,4-dihydro-1H-isoquinolin-2-yl]ethanone]			205 nM	0.49 nM
Cc1cn(C2CC2)nc1C(=O)N1CCc2cc(-c3cnc4[nH]cc(C)c4c3)cc([C@@H]3CCCN3)c2C1 [Compound Z342, (S)-(1-cyclopropyl-4-methyl-1H-pyrazol-3-yl)-[6-(3-methyl-1H-pyrrolo[2,3-b]pyridin-5-yl)-8-[pyrrolidin-2-yl]-3,4-dihydro-2(1H)-isoquinolin-yl]methanone]		0.64 nM		
Cc1c[nH]c2ncc(-c3cc4c(c([C@@H]5COCCN5)c3)CN(C(=O)C(C)(C)O)CC4)cc12 [Compound Z372, (R)-2-hydroxy-2-methyl-1-[6-(3-methyl-1H-pyrrolo[2,3-b]pyridin-5-yl)-8-[morphin-3-yl]-3,4-dihydroisoquinolin-2(1H)-yl]propan-1-one]			106 nM	0.18 nM
Cc1c[nH]c2ncc(-c3cc4c(c([C@@H]5COCCN5)c3)CN(C(=O)C3CCOCC3)CC4)cc12 [Compound Z375]			258 nM	0.59 nM

Compound	IC50 (HPK1 [1]; read-out: p-SLP76 IC50, Jurkat)	IC50 (HPK1 [2]; [3])	IC50 (HPK1 [1]; p-SLP76 IC50, Jurkat)	IC50 (HPK1 [2]; [4])
CCNC(=O)N1CCc2cc(-c3cnc4[nH]cc(C)c4c3)cc([C@@H]3COCCN3)c2C1 [Compound Z376, (R)—N-ethyl-6-(3-methyl-1H-pyrrolo[2,3-b]pyridin-5-yl)-8-(morpholin-3-yl)-3,4-dihydroisoquinoline-2(1H)-carboxamide formate]			211 nM	0.33 nM
Cc1c[nH]c2ncc(-c3cc4c(c([C@H]5COCCN5)c3)CCN(C(=O)C3CCOCC3)C4)cc12 [Compound Z449, (S)-(7-(3-methyl-1H-pyrrolo[2,3-b]pyridin-5-yl)-5-(morpholin-3-yl)-3,4-dihydroisoquinolin-2(1H)-yl)(tetrahydro-2H-pyran-4-yl)methanone]				12.4 nM
Cc1cccnc1C#Cc1c[nH]c2ncc(-c3cc4c(c([C@@H]5COCCN5)c3)CN(C(=O)C(C)(C)O)CC4)cc12 [Compound Z578, (R)-2-hydroxy-2-methyl-1-(6-(3-50 ((3-methylpyridin-2-yl)ethynyl)-1H-pyrrolo[2,3-b]pyridin-5-yl)-8-(morpholin-3-yl)-3,4-dihydroisoquinolin-2(1H)-yl)propan-1-one]			163 nM	
Cc1c[nH]c2ncc(-c3cc4c(c([C@@H]5COCCN5)c3)CN(C(=O)N3CC5(COC5)C3)CC4)cc12 [Compound Z579, (R)-(6-(3-methyl-1H-pyrrolo[2,3-b]pyridin-5-yl)-8-(morpholin-3-yl)-3,4-dihydroisoquinolin-2(1H)-yl)(2-oxa-6-oxaspiro[3.3]heptan-6-yl)methanone]			276 nM	
COc1c[nH]c2ncc(-c3cc4c(c([C@@H]5COCCN5)c3)CN(C(=O)N3C5CCC3COC5)CC4)cc12 [Compound Z582]			160 nM	
N#Cc1c[nH]c2ncc(-c3cc4c(c([C@@H]5COCCN5)c3)CN(C(=O)N3C5CCC3COC5)CC4)nc12 [Compound Z583, 2-(2-(3-oxa-8-azabicyclo[3.2.1]octane-8-carbonyl)-8-((R)-morpholin-3-yl)-1,2,3,4-tetrahydroisoquinolin-6-yl)-5H-pyrrolo[2,3-b]pyrazine-7-carbonitrile]			2670 nM	
O=C(N1CCc2cc(-c3cnc4[nH]cc(C(F)(F)F)c4n3)cc([C@@H]3COCCN3)c2C1)N1C2CCC1COC2 [Compound Z584, (3-oxa-8-azabicyclo[3.2.1]octan-8-yl)(8-((R)-morpholin-3-yl)-6-(7-(trifluoromethyl)-5H-pyrrolo[2,3-b]pyrazin-2-yl)-3,4-dihydroisoquinolin-2(1H)-yl)methanone]			127 nM	
COC1CCN(C(=O)N2CCc3cc(-c4cnc5[nH]cc(Cl)c5c4)cc([C@@H]4COCCN4)c3C2)CC1 [Compound Z589, (R)-(6-(3-chloro-1H-pyrrolo[2,3-b]pyridin-5-yl)-8-(morpholin-3-yl)-3,4-dihydroisoquinolin-2(1H)-yl)(4-methoxypiperidin-1-yl)methanone]			246 nM	
COc1c[nH]c2ncc(-c3cc4c(c([C@@H]5COCCN5)c3)CN(C(=O)N3CC5CCC(C3)O5)CC4)cc12 [Compound Z592]			215 nM	
CC(=O)c1c[nH]c2ncc(-c3cc4c(c([C@@H]5COCCN5)c3)CN(C(=O)C(C)(C)O)CC4)cc12 [Compound Z593, (R)-1-(6-(3-acetyl-1H-pyrrolo[2,3-b]pyridin-5-yl)-8-(morpholin-3-yl)-3,4-dihydroisoquinolin-2(1H)-yl)-2-hydroxy-2-methylpropan-1-one]			317 nM	
C#Cc1c[nH]c2ncc(-c3cc4c(c([C@@H]5COCCN5)c3)CN(C(=O)C(C)(C)O)CC4)cc12 [Compound Z594, (R)-1-(6-(3-ethynyl-1H-pyrrolo[2,3-b]pyridin-5-yl)-8-(morpholin-3-yl)-3,4-dihydroisoquinolin-2(1H)-yl)-2-hydroxy-2-methylpropan-1-one]			825 nM	
C[C@@H]1CN(C(=O)N2CCc3cc(-c4cnc5[nH]cc(Cl)c5c4)cc([C@@H]4COCCN4)c3C2)C[C@@H](C)O1 [Compound Z599, (6-(3-chloro-1H-pyrrolo[2,3-b]pyridin-5-yl)-8-((R)-morpholin-3-yl)-3,4-dihydroisoquinolin-2(1H)-yl)((2R,6R)-2,6-dimethylmorpholinyl)methanone]			184 nM	
C[C@H]1COCCN1C(=O)N1CCc2cc(-c3cnc4[nH]cc(Cl)c4c3)cc([C@@H]3COCCN3)c2C1 [Compound Z613]			136 nM	
Cc1c[nH]c2ncc(-c3cc4c(c([C@@H]5COCCN5)c3)CN(C(=O)[C@H]3CCOC3)CC4)nc12 [Compound Z630, (6-(7-methyl-5H-pyrrolo[2,3-b]pyrazin-2-yl)-8-((R)-morpholin-3-yl)-3,4-dihydroisoquinolin-2(1H)-yl)((S)-tetrahydrofuran-3-yl)methanone]			247 nM	
O=C([C@H]1CCOC1)N1CCc2cc(-c3cnc4[nH]cc(Cl)c4c3)cc([C@@H]3COCCN3)c2C1 [Compound Z631, (6-(3-chloro-1H-pyrrolo[2,3-b]pyridin-5-yl)-8-((R)-morpholin-3-yl)-3,4-dihydroisoquinolin-2(1H)-yl)((S)-tetrahydrofuran-3-yl)methanone]			240 nM	
